Experimental data published in patent US7632863B2, “3,4,5,4′-tetramethoxyl-α,β-diphenylethane-3′-O-sodium sulphate and its use” (The Jian Cell Biomedical Research Co., Ltd., priority 2007, dated 2009).

What was measured:
[1] = background statement, species and route not given; cited from earlier work
S180 sarcoma = settings: Dosage 30 mg/kg, i.v., S180 sarcoma-bearing mice
Source text: (1) Sample: 3,4,5,4′-tetramethoxyl-α,β-diphenylethane-3′-O-sodium sulphate (AS) provided by Zhejiang Cell Biomedical Research Co., Ltd., and prepared by the process in Example One. Dissolved by physiological saline for the concentration needed.
(2) Cisplatin: Cisplatin for injection (DDP), Qilu Pharmaceutical Co., Ltd. Batch No.: 5120282DC. Dissolved by physiological saline for preparation.
(3) Control product: Cyclophosphamide for injection (CTX), Jiangsu Hengrui Pharmaceutical Inc. Co. Batch No.: 04123021 Dissolved by physiological saline for preparation.
(1) KM mouse bearing S180 sarcoma.
(2) 70 KM mice, female, weighting 18-22 g, provided by Zhejing College of Traditional Chinese Medicine.
(1) Drawing ascites under aseptic condition from mouse bearing S180 sarcoma, diluting with physiologic saline 1:3, giving subcutaneous inoculation in the armpit of the right forelimb of the KM mice with 0.2 ml each; dividing the mice into 7 groups randomly the next day, 10 in each group.
(2) Administering drug to the mice by weight the third day of inoculation, intravenous administration 0.5 ml/20 g […], by weight, and putting them to death on the 11th day after inoculation, weighing the tumor and calculating the rate of tumor inhibition.
(3) dosage (mg/kg/d) and means of administration:
AS: 50 mg/kg, tail vein injection
AS: 100 mg/kg, tail vein injection
AS: 200 mg/kg, tail vein injection
DDP: 1 mg/kg, tail vein injection
AS+DDP: 50 mg/kg+1 mg/kg, tail vein injection
CTX: 30 mg/kg, tail vein injection
Setting up another blank control group, tail vein injection of 0.9% NaCl 0.5 ml.
(§1) (4) Judging the result with the following formula: […]

Lewis lung cancer = assay: Joint administration of AS and DDP, murine model of Lewis lung cancer (Example Five); type: in vivo, C57BL/6J mice; settings: Dosage 1 mg/kg, i.v., mice bearing Lewis lung cancer
Source text: (1) Sample: 3,4,5,4′-tetramethoxyl-α,β-diphenylethane-3′-O-sodium sulphate (AS), raw material medicine, provided by Zhejiang Cell Biomedical Research Co., Ltd., and prepared by the process in Example One. Batch No.: 061025. Dissolved by physiological saline for the concentration needed.
(2) Cisplatin: Cisplatin for injection (DDP), Qilu Pharmaceutical Co., Ltd. Batch No.: 5120282DC; Dissolved by physiological saline for preparation
(3) Control product: Cyclophosphamide for injection (CTX), Jiangsu Hengrui Pharmaceutical Inc. Co. Batch No.: 04123021. Dissolved by physiological saline for preparation.
(1) C57BL/6J mouse bearing Lewis lung cancer
(2) 70 C57BL/6J mice, female, weighing 17-21 g. Provided by the animal house of Zhejiang Cell Biomedical Research Co., Ltd.
(1) Taking tumor from C57BL/6J mouse under aseptic condition, grinding and diluting it by physiological saline 1:3 (weight:volume), and giving hypodermic inoculation 0.2 ml per mouse in the armpit of the right forelimb of each mouse. dividing the mice into 7 groups randomly the next day, 10 in each group.
(2) After inoculation, waiting till the tumor has grown to the accessible size, administering medicine according to body weight, 0.5 ml/20 g intravenous, for 11 days, putting the mice to death on the 19th after inoculation, taking out and weighing the tumor, and calculating the tumor inhibiting rate.
as §1

Row | SMILES | LD50 [1] [mg/kg] | Tumor inhibiting rate % (S180 sarcoma) [%] | Tumor weight (S180 sarcoma) [g] | Tumor inhibiting rate % (Lewis lung cancer) [%] | Tumor weight (Lewis lung cancer) [g]
1 | COc1ccc(/C=C\c2cc(OC)c(OC)c(OC)c2)cc1O [Combretastatin A-4] | 500 | – | – | – | –
2 | N.N.[Cl][Pt][Cl] [DDP, Cisplatin, reference compound] | – | 70 | 0.88 ± 0.50 | 46.4 | 2.52 ± 0.80
